Experimental data as given in patent publication US12053507B2, “Combination therapies for inhibiting sprout angiogenesis in the treatment of cancers” ([…] OF PHARMACY, LLC, priority 2010, dated 2024).
“Also recorded” adds a separate entry of the source.

Experiments:
[1] = tested on: human dermal microvascular endothelial cells (HDMEC); assay: microcarrier in vitro 3D sprout angiogenesis assay of HDMEC in fibrin gel; format: cell-based
Experimental: Human dermal microvascular endothelial cells (HDMEC) were isolated from human neonatal foreskins. Briefly, after initial harvest from minced trypsinized human foreskins, microvascular endothelial cells were further purified on a PERCOLL® density gradient. […] HDMEC were cultured on collagen type 1 coated tissue culture flasks in EGM (endothelial cell growth medium) consisting of EBM supplemented with 10 ng/ml epidermal growth factor, 0.4% bovine brain extract, 17.5 microg/ml dibutyryl cyclic AMP, and 1 microg/ml hydrocortisone in the presence of 30% normal human serum. […] All experiments were done with HDMEC below passage 10. Bovine aortic endothelial cells (BAEC) were obtained from BioWhittaker, Inc. (Walkersville, MD) and cultured according to manufacturer's instruction. BAEC between passage 4 and 8 were used for experiments.
Gelatin-coated CYTODEX®-3 microcarrier beads were prepared as described by the manufacturer. Approximately 80,000 sterile microcarrier beads were washed, resuspended in EGM, and added to approximately 4.5 million endothelial cells (HDMEC or BAEC). The beads and cells were mixed by gentle swirling, incubated at 37° C. for 6 hr, and then rotated for 24-36 hr on an orbital mixer in a 37° C. oven to generate endothelial cell-loaded microcarrier beads (EC-beads).
FIGS. 1A-1C illustrate a study of human microvascular endothelial cell angiogenesis, according to some embodiments. A microcarrier, in vitro angiogenesis assay, previously designed to investigate bovine pulmonary artery endothelial cell angiogenic behavior in bovine fibrin gels, was modified for the study of human microvascular endothelial cell angiogenesis. The HDMEC were isolated from human neonatal foreskins and used, as described above, and images were captured at various magnifications, where the effect of angiogenic factors on sprout angiogenesis was quantified visually by counting the number and percent of EC-beads with capillary sprouts.
An isotonic 1.5 mg/ml collagen solution was prepared by mixing sterile native bovine type I &III collagen (VITROGEN®, Collagen Biomaterials, Palo Alto, CA) in 5XM199 medium and distilled water. The pH was adjusted to 7.4 using 1N NaOH.
For experiments using RGD peptides, EC-beads were firstly incubated with vary concentrations of peptides for one hour and then were added to the ECM solutions. About 500 EC-beads were then added to the ECM protein solutions, followed by the addition of 0.5 U/ml human thrombin. A 0.3 ml aliquot of each suspension was immediately added to appropriate wells of a 24-well tissue culture plate. After gelation, 1 ml of fresh assay medium (EBM supplemented with 20% normal human serum for HDMEC or EBM supplemented with 10% fetal bovine serum for BAEC) was added to each well.
FIGS. 1B and 1C show how the angiogenic response was monitored visually and recorded by video image capture. Specifically, capillary sprout formation was observed and recorded with a NIKON® Diaphot-TMD inverted microscope (Nikon Inc., Melville, NY), equipped with an incubator housing with a NIKON® NP-2 thermostat and Sheldon #2004 carbon dioxide flow mixer. […] The effect of angiogenic factors on sprout angiogenesis was quantified visually by determining the number and percent of EC-beads with capillary sprouts. 100-200 beads (five random low power fields) in each of triplicate wells were counted for each experimental condition. […]

αvβ3 integrin = αvβ3 integrin (Homo sapiens, UniProt P05106+P06756); conditions: cited from earlier work
VEGF = conditions: colorectal cancer; in combination with standard Saltz regime of irinotecan, 5-fluorouracil, and leucovorin; cited from earlier work
[2] = single agent, HDMEC in 3D fibrin matrix, stimulated with VEGF and bFGF

αvβ3 integrin, sequence (P06756 31-889 limits assumed): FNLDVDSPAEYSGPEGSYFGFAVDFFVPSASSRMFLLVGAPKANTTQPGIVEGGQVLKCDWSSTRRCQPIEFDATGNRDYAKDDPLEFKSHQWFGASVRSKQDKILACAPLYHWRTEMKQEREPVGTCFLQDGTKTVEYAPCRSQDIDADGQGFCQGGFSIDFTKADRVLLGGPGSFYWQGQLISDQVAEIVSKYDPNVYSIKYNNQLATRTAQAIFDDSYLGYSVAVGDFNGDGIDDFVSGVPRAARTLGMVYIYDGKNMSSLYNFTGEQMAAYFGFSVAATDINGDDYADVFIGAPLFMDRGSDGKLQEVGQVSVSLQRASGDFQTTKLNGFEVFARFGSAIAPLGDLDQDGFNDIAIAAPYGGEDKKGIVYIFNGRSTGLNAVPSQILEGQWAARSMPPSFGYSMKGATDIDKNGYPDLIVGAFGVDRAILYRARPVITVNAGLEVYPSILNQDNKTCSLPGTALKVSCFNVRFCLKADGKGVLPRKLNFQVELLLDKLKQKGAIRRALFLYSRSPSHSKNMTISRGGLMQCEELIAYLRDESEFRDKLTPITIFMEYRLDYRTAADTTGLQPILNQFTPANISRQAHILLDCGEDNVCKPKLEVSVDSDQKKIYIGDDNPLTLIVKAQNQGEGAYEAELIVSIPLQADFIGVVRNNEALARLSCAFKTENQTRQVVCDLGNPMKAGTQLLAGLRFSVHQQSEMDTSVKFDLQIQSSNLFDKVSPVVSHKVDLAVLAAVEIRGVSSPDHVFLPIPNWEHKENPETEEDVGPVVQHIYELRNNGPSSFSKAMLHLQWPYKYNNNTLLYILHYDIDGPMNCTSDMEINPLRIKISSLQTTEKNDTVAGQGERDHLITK
αvβ3 integrin, sequence (P06756 891-1048 partner limits assumed): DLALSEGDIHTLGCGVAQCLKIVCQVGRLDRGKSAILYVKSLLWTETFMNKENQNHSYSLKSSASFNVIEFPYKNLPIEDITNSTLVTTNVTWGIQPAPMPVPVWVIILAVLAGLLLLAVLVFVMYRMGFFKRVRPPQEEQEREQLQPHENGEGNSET
αvβ3 integrin, sequence (P05106 27-788): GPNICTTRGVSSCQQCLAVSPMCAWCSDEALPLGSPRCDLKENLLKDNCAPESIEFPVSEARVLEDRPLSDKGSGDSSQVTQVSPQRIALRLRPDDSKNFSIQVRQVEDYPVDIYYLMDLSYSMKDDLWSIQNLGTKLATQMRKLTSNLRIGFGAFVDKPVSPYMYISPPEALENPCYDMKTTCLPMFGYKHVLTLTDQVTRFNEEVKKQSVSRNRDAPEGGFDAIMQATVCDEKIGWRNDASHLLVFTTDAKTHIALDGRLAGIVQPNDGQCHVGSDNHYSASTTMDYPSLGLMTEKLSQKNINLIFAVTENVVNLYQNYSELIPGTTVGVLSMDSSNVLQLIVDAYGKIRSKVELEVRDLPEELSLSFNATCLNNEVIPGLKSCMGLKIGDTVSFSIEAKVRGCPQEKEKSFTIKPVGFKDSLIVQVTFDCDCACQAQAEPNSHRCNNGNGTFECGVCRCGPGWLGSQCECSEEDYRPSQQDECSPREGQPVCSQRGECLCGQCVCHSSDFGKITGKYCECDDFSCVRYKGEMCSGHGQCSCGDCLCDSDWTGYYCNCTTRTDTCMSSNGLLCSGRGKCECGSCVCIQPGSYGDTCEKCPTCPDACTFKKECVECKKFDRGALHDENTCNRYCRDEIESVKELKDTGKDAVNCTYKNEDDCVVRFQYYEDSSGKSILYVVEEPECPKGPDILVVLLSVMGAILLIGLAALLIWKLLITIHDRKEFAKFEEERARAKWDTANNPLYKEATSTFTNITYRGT
VEGF, sequence (P15692 207-311 limits assumed): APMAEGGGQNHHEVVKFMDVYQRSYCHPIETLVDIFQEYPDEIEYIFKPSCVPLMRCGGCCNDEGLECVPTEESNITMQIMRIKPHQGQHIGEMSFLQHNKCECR

| Substance | inhibition of sprout angiogenesis ([1]; echistatin alone at 0.1 μg/ml, HDMEC in fibrin) | inhibition of sprout angiogenesis ([1]; echistatin alone, 1 μg/ml to 10 μg/ml, HDMEC in fibrin) | inhibition of sprout angiogenesis [1, 2] | inhibition of sprout angiogenesis ([1]; single agent, HDMEC in 3D fibrin matrix, stimulated with VEGF and bFGF, listed as Echistatin) | αvβ3 integrin antagonism (αvβ3 integrin) | increase of survival time (VEGF) |
| --- | --- | --- | --- | --- | --- | --- |
| echistatin (QCESGPCCRNCKFLKEGTICKRARGDDMDDYCNGKTCDCPRNPHKGPAT; listed as Echis carinatus) | little inhibitory effect | dose dependently | inhibition of sprout angiogenesis; also recorded: dose dependently inhibited sprout angiogenesis | dose dependently inhibits sprout angiogenesis | potent irreversible αvβ3 integrin antagonist | – |
| cyclo (Arg-Gly-Asp-d-Phe-Cys) [cRGDfC, reference compound] | – | – | dose dependently inhibited sprout angiogenesis | – | – | – |
| AVASTATIN® (bevacizumab): human monoclonal antibody to VEGF | – | – | – | – | – | more than 30% |
